Data taken from ChEMBL document CHEMBL2074241, “Characterization of binding properties to human P-glycoprotein: development of a [3H]verapamil radioligand-binding assay” (J Pharmacol Exp Ther, 1999).

Molecular target: ATP-dependent translocase ABCB1 (Homo sapiens, UniProt P08183)
Assay: TP_TRANSPORTER: inhibition of Verapamil binding in membranes from Vinblastine-induced Caco-2 cells
Format: functional, cell membranes, Membrane

Sequence of ATP-dependent translocase ABCB1 (P08183 whole entry): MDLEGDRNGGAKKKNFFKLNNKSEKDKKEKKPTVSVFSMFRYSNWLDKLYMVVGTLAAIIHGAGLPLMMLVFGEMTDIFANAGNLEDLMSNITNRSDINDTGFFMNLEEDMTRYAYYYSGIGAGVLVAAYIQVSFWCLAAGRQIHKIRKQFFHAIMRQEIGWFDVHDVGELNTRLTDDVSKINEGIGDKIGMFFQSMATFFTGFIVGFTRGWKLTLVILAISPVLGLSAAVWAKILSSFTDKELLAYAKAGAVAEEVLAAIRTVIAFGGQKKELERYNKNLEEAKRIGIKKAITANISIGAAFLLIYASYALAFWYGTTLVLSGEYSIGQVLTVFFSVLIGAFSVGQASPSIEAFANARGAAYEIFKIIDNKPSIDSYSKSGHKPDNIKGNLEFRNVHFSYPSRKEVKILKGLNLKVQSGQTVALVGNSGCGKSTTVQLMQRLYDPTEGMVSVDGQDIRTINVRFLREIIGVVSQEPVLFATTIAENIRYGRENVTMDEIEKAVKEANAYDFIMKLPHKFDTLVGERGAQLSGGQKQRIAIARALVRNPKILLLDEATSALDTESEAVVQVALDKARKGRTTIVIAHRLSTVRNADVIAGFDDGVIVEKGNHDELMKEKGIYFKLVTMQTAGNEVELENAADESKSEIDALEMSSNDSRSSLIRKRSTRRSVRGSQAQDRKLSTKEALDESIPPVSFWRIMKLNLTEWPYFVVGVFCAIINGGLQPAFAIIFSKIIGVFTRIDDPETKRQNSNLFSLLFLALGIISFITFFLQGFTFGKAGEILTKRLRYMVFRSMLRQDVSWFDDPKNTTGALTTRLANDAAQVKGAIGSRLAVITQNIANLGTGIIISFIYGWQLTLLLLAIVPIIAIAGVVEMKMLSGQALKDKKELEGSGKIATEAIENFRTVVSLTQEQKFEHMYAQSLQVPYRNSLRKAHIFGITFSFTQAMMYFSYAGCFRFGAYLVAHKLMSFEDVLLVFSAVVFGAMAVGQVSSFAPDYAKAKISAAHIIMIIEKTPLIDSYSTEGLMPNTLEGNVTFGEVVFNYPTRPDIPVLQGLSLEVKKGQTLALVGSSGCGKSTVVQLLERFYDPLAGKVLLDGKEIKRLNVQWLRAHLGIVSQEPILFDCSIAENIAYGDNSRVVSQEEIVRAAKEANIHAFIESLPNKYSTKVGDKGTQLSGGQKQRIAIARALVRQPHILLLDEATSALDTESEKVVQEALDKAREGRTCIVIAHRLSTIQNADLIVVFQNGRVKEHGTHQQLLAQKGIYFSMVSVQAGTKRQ

Row | Compound | Ki (read-out: Ki1) [nM] | Ki (read-out: Ki2) [nM]
1 | COC(=O)c1ccccc1-c1c2ccc(=N)cc-2oc2cc(N)ccc12 [RHODAMINE123] | 110 | 3400
2 | CC[C@]1(O)C[C@H]2CN(CCc3c([nH]c4ccccc34)[C@@](C(=O)OC)(c3cc4c(cc3OC)N(C=O)[C@H]3[C@@](O)(C(=O)OC)[C@H](OC(C)=O)[C@]5(CC)C=CCN6CC[C@]43[C@@H]65)C2)C1 [VINCRISTINE] | 470 | 148000
